Laboratory results: patent US5202320A, “Method for treating leishmaniasis” (priority 1989, dated 1993)

Assays:
[1] = system: trypanosomiasis; details: in vivo; cited from earlier work
[2] = system: Leishmania mexicana amazonensis; experiment: In vitro screening for anti-leishmanial activity: inhibition of 3H-thymidine incorporation by promastigotes; assay type: cell-based; details: for IC50: PREVIOUS, Table III only
Method: Leishmania mexicana amazonensis, strain MHOM/BR/73/M2269 (WR669), promastigotes were grown to early log phase in Schneider's Drosophila Medium (GIBCO) supplemented with 20% heat-inactivated fetal bovine serum GIBCO) and 100 ug/ml gentamicin sulfate [Parasitology 76:309 (1978)]. The assay medium was Schneider's plus 10% fetal bovine serum. Serial dilutions of the compounds of use in the present invention were suspended in the assay medium an prepared in duplicate rows of a 96-well microtiter plate. Parasite suspension (200 ul) at 2.5×10^6 cells/ml was added to each well and each plate was sealed and incubated under air at 25° C. After 24 hours, [methyl-3H] thymidine (20 Ci/mmol) was added to yield 1-2 uCi/well. After an additional 18 hours, the cells were harvested with a Skatron cell harvester onto glass microfiber filters. The filter disks were washed and dried and counted using a Beckman LS3801 scintillation counter. The data on uptake of ^3 H-thymidine was fitted to a logistic-logarithmic concentration response function by a non-linear regression method and the drug concentrations required to inhibit 50% incorporation of ^3 H-thymidine were determined [Antimicrob. Agents Chemother. 16:710 (1979); Exper. Parasitol. 66:86 (1988)].

[3] = system: Preumocystis carinii pneumonia; details: especially immunocompromised patients suffering from AIDS; cited from earlier work
[4] = system: leishmaniasis; details: Reviews of Infectious Diseases 10(3):576-577; Experimental Parasitology 52:409 (1981); cited from earlier work

N=C(N)c1ccc(OCCCCCOc2ccc(C(=N)N)cc2)cc1 [Example 4, pentamidine]
usefulness for treatment of trypanosomiasis (in words) [1]: useful for the treatment of trypanosomiasis
anti-Leishmania activity (in words) [2]: moderately effective against Leishmania
usefulness in treatment of Preumocystis carinii pneumonia (in words) [3]: extremely useful in the treatment of Preumocystis carinii pneumonia
utility for treating leishmaniasis (in words) [4]: limited utility for the purpose of treating leishmaniasis

N=C(N)c1ccc(NCCCCCNc2ccc(C(=N)N)cc2)cc1 [Example 8]
anti-Leishmania activity (in words) [2]: high-degree of anti-Leishmania activity

N=C(N)c1ccc(OCCCCCCOc2ccc(C(=N)N)cc2)cc1 [Example 9, hexamidine]
anti-Leishmania activity (in words) [2]: high-degree of anti-Leishmania activity

c1cc(C2=NCCN2)ccc1OCCCCCOc1ccc(C2=NCCN2)cc1 [Example 15]
IC50 ([2]; Leishmania mexicana): 670 nM

CN1CCN=C1c1ccc(OCCCCCOc2ccc(C3=NCCN3C)cc2)cc1 [Example 16]
IC50 [2]: > 4500 nM

COc1cc(C2=NCCN2)ccc1OCCCOc1ccc(C2=NCCN2)cc1OC [Example 17]
IC50 ([2]; Leishmania mexicana): > 4500 nM
